Results from paper PMC3849192, “A Simple Method for Assessing Free Brain/Free Plasma Ratios Using an In Vitro Model of the Blood Brain Barrier” (PLoS ONE, 2013).

Experiments:
[1] = Fraction unbound brain (fu,br), brain slice method; conditions: rat brain slices 300 µm, 1 µM, 5 h incubation
Method: Rats (male Sprague-Dawley) were decapitated under isoflurane anesthesia and the brains were removed carefully and immersed in ice-cold oxygenated physiological buffer at pH7.4. A 6 mm coronal section was cut with a razor and mounted with cyanoacrylate glue onto the tray of the microslicer (DTK-Zero 1 Microslicer, Dosak) after which six to eight 300 µm coronal slices from striatal areas were prepared. […] The compounds were dissolved at 1 µM in the buffer and the solution was incubated with the slice for 5 h.
After 5 h, the brain slices were weighed and homogenized in 9 volumes (w/v) of ECF buffer with a sonicator (SONICS VCX 500 and VCX 130). The slice homogenates in ECF buffer were stored at −20°C prior to analysis. The concentrations of the test compound in the brain slice homogenate and in the ECF buffer was determined by LC-MS/MS.
The unbound volume of distribution Vu,brain, or free fraction fu,brain was calculated according to the following equations: [drawing 1] [drawing 2] where Cslice, CECF and V0 are amount of drug in the slice, the drug concentration in the ECF (representing the drug concentration in the brain ECF, i.e. the free concentration), and the water adhesion of the brain slice. V0 has been estimated using ^14C -inulin in a separate experiment in which brain slices were incubated for 1, 2, and 4 min. V0 was obtained from brain slice uptake – inulin time profile (apparent zero-time intercept).

[2] = Brain microdialysis, free brain and plasma concentration-time profiles; assay type: in vivo; conditions: male, Wistar, sc, rat, 30 µmol/kg s.c., read-out: Cu,br/Cu,pl in microdialysis
Method: Adult male Wistar rats (280–350 g; Harlan, Horst, The Netherlands) were used for the experiments.
Rats were anesthetized using isoflurane 2% and O2. Before the surgery, Fynadine (1 mg/kg s.c.) was administered for analgesia during surgery and recovery. A mixture of Marcaine and adrenaline was used for local anesthesia on the head. Implantation of a microdialysis probe into the brain and a catheter into the right jugular vein was performed in the same surgical procedure. After surgery animals were housed individually (cages 30×30×40 cm), food and water was ad libitum available. Surgery was carried out at least 24 hours before the start of the experiments.
Each animal was placed into a stereotaxic frame (Kopf instruments, USA). A non-metal guide cannula with a MetaQuant probe (MQ 6/4, regenerated cellulose membrane, 4 mm exposed surface, Brainlink, The Netherlands) was implanted with in the prefrontal cortex (PFC), its tip at the following coordinates: AP = 3.4 mm (to bregma), lateral 0.8 mm (to midline), ventral −5.0 mm (to dura) with Toothbar set at −3.3 mm, according to the atlas of Paxinos and Watson (1982). […]
To test whether probe recoveries were sufficiently high to enable quantitative measurements of brain extracellular concentrations in the in vivo microdialysis experiments, each of the compounds was subjected to an in vitro recovery test. […]

- fubrain (slice) Mean [1]: 0.0100
- Kp at 30 min ([2]; at 30 min): 0.04
- Kp at 240 min ([2]; at 240 min): 1.71
SMILES: CN1CCN(C2=Nc3cc(Cl)ccc3Nc3ccccc32)CC1 [Clozapine]
